Data published in US20210317092A1 (BAYER PHARMA AKTIENGESELLSCHAFT, priority 2016, published 2021).
Read-outs that look alike come from different tables or passages of the source.

Target: T1, human Bradykinin B1 receptor (Homo sapiens, UniProt P46663)
T1 construct: host or cells: CHO-K1
T1 sequence (P46663 1-353): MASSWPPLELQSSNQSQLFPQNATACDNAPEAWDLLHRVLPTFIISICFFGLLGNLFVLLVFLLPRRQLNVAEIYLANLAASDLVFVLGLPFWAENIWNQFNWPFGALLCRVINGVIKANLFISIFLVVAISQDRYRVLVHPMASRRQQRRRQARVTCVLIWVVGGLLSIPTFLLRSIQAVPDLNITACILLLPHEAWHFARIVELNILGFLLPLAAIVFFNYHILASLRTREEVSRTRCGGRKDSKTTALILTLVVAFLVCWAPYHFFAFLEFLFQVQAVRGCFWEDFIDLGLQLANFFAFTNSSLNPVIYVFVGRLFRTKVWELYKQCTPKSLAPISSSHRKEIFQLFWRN
Test: Calcium flux Assay (FLIPR) with recombinant CHO-K1 cells expressing human Bradykinin B1 receptor, in presence (hB1 IC50) or absence (hB1 free IC50) of 0.1% BSA
Format: cell-based

[1] = in absence of 0.1% BSA, read-out: hB1 free IC50
[2] = in presence of 0.1% BSA, read-out: hB1 IC50

Row | SMILES | IC50 [1] [nM] | IC50 [2] [nM]
1 | O=C(Nc1ccc(-c2ccc(C(F)(F)F)nc2)c(-c2nnn[nH]2)c1)C1(c2ccc(C(F)(F)F)c(F)c2)CC1 [Example 288, 1-[3-fluoro-4-(trifluoromethyl)phenyl]-N-{3-(1H-tetrazol-5-yl)-4-[6-(trifluoromethyl)pyridin-3-yl]phenyl}cyclopro-panecarboxa-mide] | 6.81 | –
2 | O=C(Nc1ccc(-c2ccc(C(F)(F)F)nc2)c(-c2nnn[nH]2)c1)C1(c2cc(F)cc(C(F)(F)F)c2)CC1 [Example 289, 1-[3-fluoro-5-(trifluoromethyl)phenyl]-N-{3-(1H-tetrazol-5-yl)-4-[6-(trifluoromethyl)pyridin-3-yl]phenyl}cyclopro-panecarboxa-mide] | 50.2 | –
3 | Cc1cc(Cl)ccc1C1(C(=O)Nc2ccc(-c3ccc(C(F)(F)F)nc3)c(-c3nnn[nH]3)c2)CC1 [Example 290, 1-(4-chloro-2-methylphenyl)-N-{3-(1H-tetrazol-5-yl)-4-[6-(trifluoromethyl)pyridin-3-yl]phenyl}cyclopro-panecarboxa-mide] | 135 | –
4 | O=C(Nc1ccc(-c2ccc(C(F)(F)F)nc2)c(-c2nnn[nH]2)c1)C1(c2ccc(C(F)(F)F)cc2Cl)CC1 [Example 292, 1-[2-chloro-4-(trifluoromethyl)phenyl]-N-{3-(1H-tetrazol-5-yl)-4-[6-(trifluoromethyl)pyridin-3-yl]phenyl}cyclopro-panecarboxa-mide] | 7.85 | –
5 | O=C(Nc1cnc(-c2cnn(C(F)F)c2)c(-c2nnn[nH]2)c1)C1(c2ccc(C(F)(F)F)cc2F)CC1 [Example 296, N-{6-[1-(difluoromethyl)-1H-pyrazol-4-yl]-5-(1H-tetrazol-5-yl)pyridin-3-yl}-1-[2-fluoro-4-(trifluoromethyl)phenyl]cyclopro-panecarboxamide] | 1730 | –
6 | O=C(Nc1ccc(-c2ccc(C(F)(F)F)nc2)c(-c2nnn[nH]2)c1F)C1(c2cccc(Cl)c2)CC1 [Example 297, 1-(3-chlorophenyl)-N-{2-fluoro-3-(1H-tetrazol-5-yl)-4-[6-(trifluoromethyl)pyridin-3-yl]phenyl}cyclopro-panecarboxa-mide] | 350 | –
7 | O=C(Nc1ccc(-c2ccc(C(F)(F)F)nc2)c(-c2nnn[nH]2)c1F)C1(c2ccc(F)c(F)c2)CC1 [Example 298, 1-(3,4-difluorophenyl)-N-{2-fluoro-3-(1H-tetrazol-5-yl)-4-[6-(trifluoromethyl)pyridin-3-yl]phenyl}cyclopro-panecarboxa-mide] | 368 | –
8 | Cc1ccc(C2(C(=O)Nc3ccc(-c4ccc(C(F)(F)F)nc4)c(-c4nnn[nH]4)c3F)CC2)c(F)c1 [Example 299, 1-(2-fluoro-4-methylphenyl)-N-{2-fluoro-3-(1H-tetrazol-5-yl)-4-[6-(trifluoromethyl)pyridin-3-yl]phenyl}cyclopro-panecarboxa-mide] | 241 | –
9 | O=C(Nc1ccc(-c2ccc(C(F)(F)F)nc2)c(-c2nnn[nH]2)c1F)C1(c2ccc(C(F)(F)F)cc2F)CC1 [Example 300] | 58.1 | –
10 | O=C(Nc1ccc(-c2ccc(C(F)(F)F)nc2)c(-c2nnn[nH]2)c1F)C1(c2ccc(OC(F)(F)F)cc2F)CC1 [Example 301, N-{2-fluoro-3-(1H-tetrazol-5-yl)-4-[6-(trifluoromethyl)pyridin-3-yl]phenyl}-1-[2-fluoro-4-(trifluoromethoxy)phenyl]cyclo-propanecarboxa-mide] | 36.1 | –
11 | O=C(Nc1cc(Cl)c(-c2ccc(C(F)(F)F)nc2)c(-c2nnn[nH]2)c1)C1(c2cccc(Cl)c2)CC1 [Example 302, 1-(3-chlorophenyl)-N-{3-chloro-5-(1H-tetrazol-5-yl)-4-[6-(trifluoromethyl)pyridin-3-yl]phenyl}cyclopro-panecarboxa-mide] | 44 | –
12 | O=C(Nc1cc(Cl)c(-c2ccc(C(F)(F)F)nc2)c(-c2nnn[nH]2)c1)C1(c2ccc(F)c(F)c2)CC1 [Example 303, N-{3-chloro-5-(1H-tetrazol-5-yl)-4-[6-(trifluoromethyl)pyridin-3-yl]phenyl}-1-(3,4-difluorophenyl)cy-clopropanecar-boxamide] | 52 | –
13 | O=C(Nc1cc(Cl)c(-c2ccc(C(F)(F)F)nc2)c(-c2nnn[nH]2)c1)C1(c2ccc(C(F)(F)F)cc2F)CC1 [Example 304, N-{3-chloro-5-(1H-tetrazol-5-yl)-4-[6-(trifluoromethyl)pyridin-3-yl]phenyl}-1-[2-fluoro-4-(trifluoromethyl)phenyl]cyclopro-panecarboxamide] | 18.5 | –
14 | CCOc1ccc(-c2ccc(NC(=O)C3(c4ccccc4)CC3)cc2-c2nnn[nH]2)cn1 [Example 306, N-[4-(6-ethoxypyridin-3-yl)-3-(1H-tetrazol-5-yl)phenyl]-1-phenylcyclopropane-carboxamide] | 45.7 | 133
15 | CCOc1ccc(-c2ccc(NC(=O)C(C)(C)C)cc2-c2nnn[nH]2)cn1 [Example 309, N-[4-(6-ethoxypyridin-3-yl)-3-(1H-tetrazol-5-yl)phenyl]-2,2-dimethylpropan-amide] | 587 | –
16 | O=C(Nc1ccc(-c2ccc(OCC(F)(F)F)nc2)c(-c2nnn[nH]2)c1)C1(c2cccc(Cl)c2)CC1 [Example 313, 1-(3-chlorophenyl)-N-{3-(1H-tetrazol-5-yl)-4-[6-(2,2,2-trifluoroethoxy)-pyridin-3-yl]phenyl}cyclopropanecarboxamide] | – | 191
17 | COc1ccc(-c2ccc(NC(=O)C3(c4cccc(Cl)c4)CC3)cc2-c2nnn[nH]2)cc1 [Example 314, 1-(3-chlorophenyl)-N-[4′-methoxy-2-(1H-tetrazol-5-yl)biphenyl-4-yl]cyclopropane-carboxamide] | – | 340
18 | COc1ccc(-c2ccc(NC(=O)C3(c4cccc(Cl)c4)CC3)cc2-c2nnn[nH]2)cc1F [Example 315, 1-(3-chlorophenyl)-N-[3′-fluoro-4′-methoxy-2-(1H-tetrazol-5-yl)biphenyl-4-yl]cyclopropane-carboxamide] | – | 235
19 | COc1ccc(-c2ccc(NC(=O)C3(c4cccc(Cl)c4)CC3)cc2-c2nnn[nH]2)cn1 [Example 316, 1-(3-chlorophenyl)-N-[4-(6-methoxypyridin-3-yl)-3-(1H-tetrazol-5-yl)phenyl]cyclopro-panecarboxa-mide] | – | 328
20 | O=C(Nc1ccc(-c2ccc(OC(F)(F)F)cc2)c(-c2nnn[nH]2)c1)C1(c2cccc(Cl)c2)CC1 [Example 317, 1-(3-chlorophenyl)-N-[2-(1H-tetrazol-5-yl)-4′-(trifluoromethoxy)biphenyl-4-yl]cyclopropane-carboxamide] | – | 52.9
21 | CCOc1cncc(-c2ccc(NC(=O)C3(c4cccc(Cl)c4)CC3)cc2-c2nnn[nH]2)c1 [Example 318, 1-(3-chlorophenyl)-N-[4-(5-ethoxypyridin-3-yl)-3-(1H-tetrazol-5-yl)phenyl]cyclopro-panecarboxa-mide] | – | 59.1
22 | CS(=O)(=O)c1cncc(-c2ccc(NC(=O)C3(c4cccc(Cl)c4)CC3)cc2-c2nnn[nH]2)c1 [Example 319, 1-(3-Chlorophenyl)-N-{4-[5-(methylsulfonyl)pyridin-3-yl]-3-(1H-tetrazol-5-yl)phenyl}cyclopro-panecarboxa-mide] | 436 | 521
23 | COc1cc(-c2ccc(NC(=O)C3(c4cccc(Cl)c4)CC3)cc2-c2nnn[nH]2)ccn1 [Example 320, 1-(3-Chlorophenyl)-N-[4-(2-methoxypyridin-4-yl)-3-(1H-tetrazol-5-yl)phenyl]cyclopro-panecarboxa-mide] | – | 208
24 | O=C(Nc1ccc(-c2cnc3ccoc3c2)c(-c2nnn[nH]2)c1)C1(c2cccc(Cl)c2)CC1 [Example 321, 1-(3-chlorophenyl)-N-[4-(furo[3,2-b]pyridin-6-yl)-3-(1H-tetrazol-5-yl)phenyl]cyclopro-panecarboxa-mide] | – | 152
25 | O=C(Nc1ccc(-c2ccc(N3CCOCC3)cc2)c(-c2nnn[nH]2)c1)C1(c2cccc(Cl)c2)CC1 [Example 322, 1-(3-chlorophenyl)-N-[4′-(morpholin-4-yl)-2-(1H-tetrazol-5-yl)biphenyl-4-yl]cyclopropane carboxamide] | – | 238
26 | N#Cc1ccc(-c2ccc(NC(=O)C3(c4cccc(Cl)c4)CC3)cc2-c2nnn[nH]2)cn1 [Example 323, 1-(3-chlorophenyl)-N-[4-(6-cyanopyridin-3-yl)-3-(1H-tetrazol-5-yl)phenyl]cyclopro-panecarboxa-mide] | – | 355
27 | N#Cc1cc(-c2ccc(NC(=O)C3(c4cccc(Cl)c4)CC3)cc2-c2nnn[nH]2)ccc1Cl [Example 325, N-[4′-chloro-3′-cyano-2-(1H-tetrazol-5-yl)biphenyl-4-yl]-1-(3-chlorophenyl)cy-clopropanecarbox-amide] | – | 1740
28 | CN1CCN(c2ccc(-c3ccc(NC(=O)C4(c5cccc(Cl)c5)CC4)cc3-c3nnn[nH]3)cc2)CC1 [Example 330, 1-(3-chlorophenyl)-N-[4′-(4-methylpiperazin-1-yl)-2-(1H-tetrazol-5-yl)biphenyl-4-yl]cyclopropane carboxamide] | 141 | 158
29 | CS(=O)(=O)Nc1ccc(-c2ccc(NC(=O)C3(c4cccc(Cl)c4)CC3)cc2-c2nnn[nH]2)cc1 [Example 331, 1-(3-chloropehnyl)-N-{4′-[(methylsulfonyl)amino]-2-(1H-tetrazol-5-yl)biphenyl-4-yl}cyclopropane carboxamide] | 162 | 206
30 | O=C(Nc1ccc(-c2cc3c(Cl)nccc3o2)c(-c2nnn[nH]2)c1)C1(c2cccc(Cl)c2)CC1 [Example 332, N-[4-(4-chlorofuro[3,2-c]pyridin-2-yl)-3-(1H-tetrazol-5-yl)phenyl]-1-(3-chlorophenyl)cy-clopropanecarbox-amide] | 191 | 274
